# Tests used:
# [1] = system: Liver tissue; experiment: Liver tissue disaggregation by 1% surfactant with or without Proteinase K at 60° C.; set-up: Tissue Disaggregation: scale not given here; settings: for Tissue Disaggregation: 60° C., 1% surfactant
# Protocol: To evaluate the ability of various cationic surfactants to increase the digestion of tissue by Proteinase K, liver slices were digested using reaction compositions including one of the sixteen surfactants (shown in Table 4), both with and without Proteinase K. The reducing agent dithiothreitol (DTT) was included to evaluate the effect of reducing conditions on tissue digestion. […] One of the sixteen surfactants was added to one pair of tubes to yield a final concentration of 1% surfactant. The seventeenth pair of tubes served as non-surfactant controls. One milligram (mg) of Proteinase K was added to one tube of each of the seventeen pairs.
# PK=presence or absence of Proteinase K in the reaction composition; Y=Proteinase K was present; N=Proteinase K was not present in the reaction composition.
# [2] = Solubility of surfactants (0.5% Sarkosyl, LDS, SDS, CTAB; 5.0% others) in salt solutions
# Protocol: In certain instances, the solubility of detergents in high salt may relate to on the composition of the salt and the detergent itself. A mixing experiment was performed to examine the solubility of a variety of anionic, cationic, and nonionic surfactants in different salt compositions. […] The salt solutions contained Lil, Nal, KI, Rbl, Csl , GuSCN, GuHCl, or NaClO4, at pH 6.0 or 10.0. […] The solubility of the surfactants was scored as either soluble or insoluble. The solubility of the surfactant in the salt solution was determined initially by visual observations for cloudiness or precipitate formation. The resulting solutions were also centrifuged to verify the absence of a precipitate by the absence of a precipitate pellet.
# [3] = system: slices of liver; experiment: Maceration of liver slices by reaction compositions at 65° C.; settings: 65° C.
# Protocol: Initially, a series of reaction compositions were analyzed for their ability to disaggregate a biological sample, e.g., slices of liver. These reaction compositions comprised 100 mM Tris, pH 8.0, 20 mM dithiothreitol (DTT), and optionally,1 mg/ml Proteinase K, surfactants (e.g., cationic, nonionic and anionic detergents), chaotropes, or the additive 1-methyl-2-pyrollidinone (Sigma). Each reaction compositions was placed in a tube with a slice of liver and then incubated at 65° C. The tubes were observed periodically to determine which reaction compositions were able to efficiently macerate the sample.
# [4] = system: Liver tissue; experiment: Nucleic acid release from liver slices, pH 6, 45° C., 30 minutes, surfactants and additives; settings: with 1-methyl-2-pyrolidinone
# Protocol: To compare CTACl to CTAB, those two surfactants were evaluated in parallel along with hexadecyltrimethylammonium bromide (HDTAB), hexadecyltrimethylammonium chloride (HDTACl), and Sarkosyl. Three additives, phenylglyoxal, acridine orange (e.g., Sigma #A6014), and 1-methyl-2-pyrolidinone, were also evaluated. Phenylglyoxal was tested to determine if it would reduce RNAse activity. […] 1-Methyl-2-pyrrolidinone was tested to see if it would enhance solubility of the sample by various reaction compositions.
# Slices of liver-tissue (100-200 mg/sample) were placed into twenty-one Eppendorf tubes. Four hundred microliters of a reaction composition, comprising 100 mM MES, pH 6, 20 mM CaCl2, and 1 mg Proteinase K, was added to each tube.
# The tubes were incubated at 45° C. for 30 minutes with mixing (Eppendorf Thermomixer, Model 5436). Surfactant: protease complexes were solubilized using methods the same as or similar to those described in Example 7. Remaining tissue fragments were removed by centrifugation using methods the same as or similar to those described in Example 7. The supernatant was phenol extracted, isopropanol precipitated, and ethanol washed using methods the same as or similar to those described in Example 6.
# [5] = Fifteen Minutes Incubation, Proteinase K not present (N)
# [6] = Fifteen Minutes Incubation, Proteinase K present (Y)
# [7] = Fifty-Two Minutes Incubation, Proteinase K not present (N)
# [8] = Fifty-Two Minutes Incubation, Proteinase K present (Y)
# [9] = 1 mg/ml Proteinase K, 16-24 hr, additive 0.1%
# [10] = 1 mg/ml Proteinase K, 16-24 hr, additive 1%
# [11] = 1 mg/ml Proteinase K, 1 hr, additive 0.1%
# [12] = 1 mg/ml Proteinase K, 1 hr, additive 1%
# [13] = No Proteinase K, 16-24 hr, additive 2%
smiles,measurement,setting,value
"O[C@H](CS)[C@H](O)CS (racemic) [DTT, dithiothreitol]",effect of reducing agent on tissue disaggregation,[1]; 20 mM dithiothreitol,did not seem to significantly effect tissue disaggregation
CCCCCCCCCCCC[N+](C)(C)Cc1ccccc1.[Br-] [Benzyldimethyldodecylammonium bromide],Tissue Disaggregation,[1]; [5],0
same,Tissue Disaggregation,[1]; [6],0
same,Tissue Disaggregation,[1]; [7],0
same,Tissue Disaggregation,[1]; [8],1
CCCCCCCCCCCCCCCC[N+](C)(C)Cc1ccccc1.[Br-] [Benzyldimethylhexadecylammonium bromide],Tissue Disaggregation,[1]; [5],0
same,Tissue Disaggregation,[1]; [6],0
same,Tissue Disaggregation,[1]; [7],0
same,Tissue Disaggregation,[1]; [8],1
CCCCCCCCCCCCCC[N+](C)(C)Cc1ccccc1.[Cl-] [Benzyldimethyltetradecyl ammonium chloride],Tissue Disaggregation,[1]; [5],0
same,Tissue Disaggregation,[1]; [6],0
same,Tissue Disaggregation,[1]; [7],0
same,Tissue Disaggregation,[1]; [8],1
"CCCCCCCCCCCCOCCOCCOCCO [Brij 30, triethyleneglycol monolauryl ether]",Solubility of surfactant,"[2]; 4 M GuSCN, Urea, pH 6.0",S
same,Solubility of surfactant,"[2]; 4 M GuSCN, Urea, pH 10.0",S
same,Solubility of surfactant,"[2]; 4 M NaI, Urea, pH 6.0",S(V)
same,Solubility of surfactant,"[2]; 6 M GuHCl, pH 6.0",S
same,Solubility of surfactant,"[2]; 6 M GuHCl, pH 10.0",S
same,Solubility of surfactant,"[2]; 6 M GuSCN, pH 6.0",S
same,Solubility of surfactant,"[2]; 6 M GuSCN, pH 10.0",S
same,Solubility of surfactant,"[2]; 6 M NaI, pH 6.0",S
C[C@H](CCC(=O)O)[C@H]1CC[C@H]2[C@@H]3[C@H](O)C[C@@H]4C[C@H](O)CC[C@]4(C)[C@H]3CC[C@]12C [Chenodeoxycholic Acid],maceration of liver slice,[3]; [9],0%
same,maceration of liver slice,[3]; [10],0%
same,maceration of liver slice,[3]; [11],0%
same,maceration of liver slice,[3]; [12],0%
same,maceration of liver slice,[3]; [13],0%
C[C@H](CCC(=O)O)[C@H]1CC[C@H]2[C@@H]3[C@H](O)C[C@@H]4C[C@H](O)CC[C@]4(C)[C@H]3C[C@H](O)[C@]12C [Cholic Acid],maceration of liver slice,[3]; [13],0%
C[C@H](CCC(=O)NCC(=O)O)[C@H]1CC[C@H]2[C@@H]3[C@H](O)C[C@@H]4C[C@H](O)CC[C@]4(C)[C@H]3C[C@H](O)[C@]12C [Glycocholic Acid],maceration of liver slice,[3]; [9],0%
same,maceration of liver slice,[3]; [10],0%
same,maceration of liver slice,[3]; [11],0%
same,maceration of liver slice,[3]; [12],0%
Cl.N=C(N)N [Guanidinium chloride],maceration of liver slice,"[3]; 1 mg/ml Proteinase K, 2-5 hr, additive 2 M",0%
same,maceration of liver slice,"[3]; No Proteinase K, 2-5 hr, additive 2 M",0%
N#CS.N=C(N)N [Guanidinium thiocyanate],maceration of liver slice,"[3]; 1 mg/ml Proteinase K, 2-5 hr, additive 1 M",25%
same,maceration of liver slice,"[3]; No Proteinase K, 2-5 hr, additive 1 M",0%
"CCCCCCCCCCCCCCCC[N+](C)(C)C.[Cl-] [HDTACl, hexadecyltrimethylammonium chloride]",high molecular weight nucleic acid by gel electrophoresis,[4],High molecular weight nucleic acid was also observed
"CCCCCCCC/C=C\CCCCCCCC[N+](C)(C)Cc1ccccc1.[Cl-] [Mackernium KP, olealkonium chloride]",Tissue Disaggregation,[1]; [5],0
same,Tissue Disaggregation,[1]; [6],1
same,Tissue Disaggregation,[1]; [7],0
same,Tissue Disaggregation,[1]; [8],4
"CCCCCCCCCCCCCCCCCC[N+](C)(C)Cc1ccccc1.[Cl-] [Mackernium SDC-85, Stearalkonium chloride]",Tissue Disaggregation,[1]; [5],0
same,Tissue Disaggregation,[1]; [6],3
same,Tissue Disaggregation,[1]; [7],0
same,Tissue Disaggregation,[1]; [8],3
CCCCC(CC)COS(=O)(=O)[O-].[Na+] (stereo not shown) [NiaProof Type 8],maceration of liver slice,[3]; [9],0%
same,maceration of liver slice,[3]; [10],0%
same,maceration of liver slice,[3]; [11],0%
same,maceration of liver slice,[3]; [12],0%
same,maceration of liver slice,"[3]; No Proteinase K, 2-5 hr, additive 2%",0%
